Where a name gives a salt, the structure may show the parent alone.
Experiments:
Details in all cases: 72 h
Caco-2 [1] = test: cell viability relative to DMSO; higher = less toxic
Calu-3 [2] = test: as above
HepG2 [3] = test: as above
U2OS [4] = test: as above
Caco-2 [5] = test: relative viability EC50 (midpoint between 100% and the lowest measured viability); higher = less toxic
Calu-3 [6] = test: as above
HepG2 [7] = test: as above
U2OS [8] = test: as above
Caco-2 [9] = test: drug sensitivity score (DSS) for viability; higher = more toxic; extreme values may be limits of the assay
Calu-3 [10] = test: as above
HepG2 [11] = test: as above
U2OS [12] = test: as above
Vero E6 [13] = test: cell viability relative to DMSO; higher = less toxic
Vero E6 [14] = test: drug sensitivity score (DSS) for viability; higher = more toxic; extreme values may be limits of the assay

Row | SMILES | cell viability (Caco-2 [1]; 1 nM) [%] | cell viability (Caco-2 [1]; 10 nM) [%] | cell viability (Caco-2 [1]; 100 nM) [%] | cell viability (Caco-2 [1]; 1000 nM) [%] | cell viability (Caco-2 [1]; 10000 nM) [%] | cell viability (Calu-3 [2]; 1 nM) [%] | cell viability (Calu-3 [2]; 10 nM) [%] | cell viability (Calu-3 [2]; 100 nM) [%] | cell viability (Calu-3 [2]; 1000 nM) [%] | cell viability (Calu-3 [2]; 10000 nM) [%] | cell viability (HepG2 [3]; 1 nM) [%] | cell viability (HepG2 [3]; 10 nM) [%] | cell viability (HepG2 [3]; 100 nM) [%] | cell viability (HepG2 [3]; 1000 nM) [%] | cell viability (HepG2 [3]; 10000 nM) [%] | cell viability (U2OS [4]; 1 nM) [%] | cell viability (U2OS [4]; 10 nM) [%] | cell viability (U2OS [4]; 100 nM) [%] | cell viability (U2OS [4]; 1000 nM) [%] | cell viability (U2OS [4]; 10000 nM) [%] | relative viability EC50 (Caco-2 [5]) [µM] | relative viability EC50 (Calu-3 [6]) [µM] | relative viability EC50 (HepG2 [7]) [µM] | relative viability EC50 (U2OS [8]) [µM] | drug sensitivity score (Caco-2 [9]) | drug sensitivity score (Calu-3 [10]) | drug sensitivity score (HepG2 [11]) | drug sensitivity score (U2OS [12]) | cell viability (Vero E6 [13]; 1 nM) [%] | cell viability (Vero E6 [13]; 10 nM) [%] | cell viability (Vero E6 [13]; 100 nM) [%] | cell viability (Vero E6 [13]; 1000 nM) [%] | cell viability (Vero E6 [13]; 10000 nM) [%] | drug sensitivity score (Vero E6 [14])
1 | Cc1c(N)cccc1Cn1ccc(OCCc2cccs2)cc1=O | 91.2 | 91.6 | 91.1 | 98.5 | 84.3 | 95.9 | 100 | 106 | 102 | 93.4 | 93.3 | 104 | 94.1 | 99.8 | 93.2 | 99.5 | 101 | 95.4 | 97.1 | 95 | > 10 | > 10 | > 10 | > 10 | 0 | 0 | 0 | 0 |  |  |  |  |  | 
2 | Cc1cccc2c1CC[C@H](CN1CCC(c3c(Cl)cccc3Cl)CC1)C[C@@H]2O | 93.9 | 95.8 | 91.3 | 78.3 | 58.1 | 93.8 | 106 | 89.1 | 83.8 | 51.2 | 104 | 102 | 93.3 | 86.5 | 38.5 | 102 | 106 | 95.2 | 94.2 | 62.1 |  |  | 1.65 |  | 4.7 | 4.2 | 5.5 | 2.8 | 99.2 | 104 | 95 | 90.2 | 70 | 2.2
3 | CCCCCCN(CCCCCC)C(=O)Cc1c(-c2ccc(Cl)cc2)[nH]c2ccc(Cl)cc12 [FGIN-1-43] | 101 | 102 | 101 | 93.5 | 86.8 | 91.5 | 106 | 99.4 | 101 | 103 | 104 | 94.9 | 106 | 98.2 | 97 | 98.4 | 103 | 103 | 104 | 95.2 | > 10 | > 10 | > 10 | > 10 | 0.5 | 0 | 0 | 0 |  |  |  |  |  | 
4 | CS(=O)(=O)c1ccc(-c2nnc(/C=C/c3nnc(-c4ccc(C#N)cc4)o3)n2-c2ccccc2Cl)nc1 [G007-LK] | 104 | 108 | 93.1 | 83.1 | 94.1 | 105 | 93.4 | 67.1 | 66 | 77.2 | 107 | 106 | 101 | 92.8 | 89.5 | 94.7 | 98 | 91.8 | 85.8 | 83.5 | > 10 |  | > 10 | > 10 | 2.6 | 11.1 | 0.1 | 1.4 | 99.2 | 105 | 95.1 | 61.7 | 57.8 | 7.5
5 | COc1ccc(C2(CNC(=O)c3ccc(NC(=O)c4ccco4)cc3)CCOCC2)cc1 [JW-55] | 101 | 91.6 | 97.8 | 92.1 | 93.6 |  |  |  |  |  | 100 | 117 | 94.9 | 102 | 89.3 | 103 | 95.9 | 97.8 | 95.2 | 90.8 | > 10 |  | > 10 | > 10 | 0 |  | 0 | 0 | 103 | 108 | 97.3 | 102 | 62.6 | 1.6
6 | CN1CCC(NC(=O)c2cc(-c3c(O)cc(O)cc3Oc3ccc([N+](=O)[O-])cc3)on2)CC1 [NMS-E973] | 99.1 | 97.8 | 101 | 61.3 | 33.7 | 93.7 | 101 | 90.4 | 68.4 | 44 | 108 | 101 | 55 | 0.9 | 0.9 | 94.2 | 103 | 99.5 | 28.2 | 3.7 | 0.874 | 0.669 | 0.108 | 0.65 | 8.3 | 7 | 23.6 | 13.6 | 109 | 100 | 106 | 108 | 62.2 | 1.4
7 | CN(C)CC/C=C1/c2ccccc2COc2ccc(CC(=O)O)cc21 [Olopatadine hydrochloride (Opatanol)] |  |  |  |  |  |  |  |  |  |  |  |  |  |  |  |  |  |  |  |  |  |  |  |  |  | 0 | 0 | 0 |  |  |  |  |  | 0
8 | c1ccc(C(NCc2cccnc2)(c2ccccc2)c2ccccc2)cc1 [UCL-2077] | 101 | 103 | 96.7 | 103 | 91.4 | 96.7 | 86.1 | 89.6 | 94.2 | 94.8 | 97.4 | 104 | 97.3 | 92.6 | 94.6 | 96.9 | 98.5 | 101 | 106 | 103 | > 10 | > 10 | > 10 | > 10 | 0 | 0 | 0 | 0 |  |  |  |  |  | 
9 | C[C@H]1O[C@H](O[C@H]2[C@H](O)[C@@H](O)[C@@H](O[C@H]3[C@H](O)[C@@H](O)C(O)O[C@@H]3CO)O[C@@H]2CO)[C@H](O)[C@@H](O)[C@@H]1N[C@H]1C=C(CO)[C@@H](O)[C@H](O)[C@H]1O (stereo partly drawn) [acarbose] |  |  |  |  |  |  |  |  |  |  |  |  |  |  |  |  |  |  |  |  |  |  |  |  |  | 0 | 0 |  |  |  |  |  |  | 0
10 | CNC1CCCN(c2c(F)cc3c(=O)c(C(=O)O)cn(C4CC4)c3c2OC)C1 (stereo not drawn) [balofloxacin] | 105 | 98.3 | 98.4 | 93.3 | 99.9 | 104 | 94.8 | 101 | 97.7 | 102 | 114 | 97.5 | 93.1 | 104 | 104 | 113 | 102 | 97.5 | 103 | 93.2 | > 10 | > 10 | > 10 | > 10 | 0 | 0 | 0 | 0 |  |  |  |  |  | 
11 | CCN(CCCOc1ccc2c(Nc3cc(CC(=O)Nc4cccc(F)c4)[nH]n3)ncnc2c1)CCOP(=O)(O)O [barasertib] | 99.4 | 99.7 | 79.1 | 102 | 82.9 | 112 | 94.2 | 102 | 92.2 | 91.3 | 93.4 | 94.7 | 70.7 | 82.9 | 75 | 101 | 101 | 98 | 100 | 89.7 | > 10 | > 10 |  | > 10 | 0.4 | 0 | 6 | 0 | 94.3 | 96.9 | 101 | 93.7 | 74.2 | 1.9
12 | Cc1c(-c2ccc(-c3ccccc3F)cc2)nc2ccc(F)cc2c1C(=O)O [brequinar] | 123 | 93.8 | 93.4 | 105 | 111 | 96.4 | 93.9 | 101 | 106 | 99.6 | 105 | 104 | 95.6 | 59.2 | 41.8 | 98.2 | 93.1 | 103 | 103 | 103 | > 10 | > 10 | 0.563 | > 10 | 0 | 0 | 8.3 | 0 | 92.9 | 93.3 | 93.5 | 66.3 | 64.2 | 6.6
13 | O=c1[nH]c(=O)c2ccccc2o1 [carsalam] | 99.5 | 95.4 | 92.5 | 104 | 98.8 | 89.6 | 93.5 | 104 | 106 | 108 | 96 | 100 | 103 | 98.1 | 101 | 98.9 | 102 | 97.3 | 102 | 103 | > 10 | > 10 | > 10 | > 10 | 0 | 0 | 0 | 0 |  |  |  |  |  | 
14 | CN[C@@H]1[C@H](O[C@H]2[C@H](O[C@H]3[C@H](O)[C@@H](O)[C@H](NC(=N)N)[C@@H](O)[C@@H]3NC(=N)N)O[C@@H](C)[C@]2(O)CO)O[C@@H](CO)[C@H](O)[C@H]1O [dihydrostreptomycin] | 99.2 | 94.3 | 97.6 | 93.8 | 104 | 97.8 | 97.1 | 106 | 96.9 | 94.8 | 109 | 100 | 101 | 105 | 98.5 | 102 | 105 | 97.3 | 107 | 97.3 | > 10 | > 10 | > 10 | > 10 | 0 | 0 | 0 | 0 |  |  |  |  |  | 
15 | O=C(Nc1nc2cccc(-c3ccc(CN4CCS(=O)(=O)CC4)cc3)n2n1)C1CC1 [filgotinib] | 111 | 104 | 93.2 | 95.7 | 96.5 | 95.7 | 105 | 98.2 | 87.5 | 97.4 | 100 | 99.1 | 96.4 | 102 | 53.4 |  |  |  |  |  | > 10 | > 10 |  |  | 0 | 0 | 2.3 |  |  |  |  |  |  | 
16 | CC(=O)O[C@H]1C[C@@]2(C)[C@@H](C[C@@H](O)[C@H]3[C@@]4(C)CC[C@@H](O)[C@@H](C)[C@@H]4CC[C@@]32C)/C1=C(\CCC=C(C)C)C(=O)O [fusidic-acid] | 103 | 116 | 89.6 | 104 | 99.5 | 96 | 109 | 93.7 | 93.5 | 86.1 |  |  |  |  |  | 98.8 | 104 | 99.6 | 106 | 100 | > 10 | > 10 |  | > 10 | 0 | 0.3 |  | 0 |  |  |  |  |  | 
